From ChEMBL document CHEMBL5465560, “Selectivity Literature for EUbOPEN Chemogenomic Library” (2024)

What was measured:
[1] = molecular target: STE20-like serine/threonine-protein kinase (Homo sapiens, UniProt Q9H2G2); test: Selectivity interaction (KinomeScan (DiscoverX)) EUB0000595a SLK; conditions: at 10 µM
[2] = molecular target: T1, SNF-related serine/threonine-protein kinase (Homo sapiens) (UniProt Q9NRH2); test: Selectivity interaction (KinomeScan (DiscoverX)) EUB0001079a SNRK; conditions: at 1 µM
T1 sequence (whole entry): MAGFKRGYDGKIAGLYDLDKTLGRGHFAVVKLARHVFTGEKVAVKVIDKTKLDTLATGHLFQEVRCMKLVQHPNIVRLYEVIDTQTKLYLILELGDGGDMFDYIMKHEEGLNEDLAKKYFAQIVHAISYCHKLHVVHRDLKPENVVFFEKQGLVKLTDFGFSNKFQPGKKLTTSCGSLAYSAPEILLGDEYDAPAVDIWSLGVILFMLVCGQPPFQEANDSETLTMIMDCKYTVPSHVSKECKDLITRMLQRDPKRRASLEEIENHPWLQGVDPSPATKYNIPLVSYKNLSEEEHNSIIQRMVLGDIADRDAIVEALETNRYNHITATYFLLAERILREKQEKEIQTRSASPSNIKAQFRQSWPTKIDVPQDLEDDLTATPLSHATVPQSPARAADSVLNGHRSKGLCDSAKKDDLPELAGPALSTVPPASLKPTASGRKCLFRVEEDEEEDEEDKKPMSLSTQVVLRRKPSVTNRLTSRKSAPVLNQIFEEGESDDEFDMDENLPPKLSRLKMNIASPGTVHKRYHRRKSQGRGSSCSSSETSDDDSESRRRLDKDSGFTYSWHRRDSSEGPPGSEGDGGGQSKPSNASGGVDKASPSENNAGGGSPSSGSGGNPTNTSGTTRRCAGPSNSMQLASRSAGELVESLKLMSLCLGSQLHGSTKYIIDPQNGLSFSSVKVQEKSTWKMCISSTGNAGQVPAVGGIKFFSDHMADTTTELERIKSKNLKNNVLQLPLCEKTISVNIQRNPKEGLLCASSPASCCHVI

[3] = molecular target: Cyclin-dependent kinase 18 (Homo sapiens) (UniProt Q07002); test: Selectivity interaction (KinomeScan (DiscoverX)) EUB0001049a CDK18; conditions: at 1 µM
Sequence of Cyclin-dependent kinase 18 (Homo sapiens) (Q07002 whole entry): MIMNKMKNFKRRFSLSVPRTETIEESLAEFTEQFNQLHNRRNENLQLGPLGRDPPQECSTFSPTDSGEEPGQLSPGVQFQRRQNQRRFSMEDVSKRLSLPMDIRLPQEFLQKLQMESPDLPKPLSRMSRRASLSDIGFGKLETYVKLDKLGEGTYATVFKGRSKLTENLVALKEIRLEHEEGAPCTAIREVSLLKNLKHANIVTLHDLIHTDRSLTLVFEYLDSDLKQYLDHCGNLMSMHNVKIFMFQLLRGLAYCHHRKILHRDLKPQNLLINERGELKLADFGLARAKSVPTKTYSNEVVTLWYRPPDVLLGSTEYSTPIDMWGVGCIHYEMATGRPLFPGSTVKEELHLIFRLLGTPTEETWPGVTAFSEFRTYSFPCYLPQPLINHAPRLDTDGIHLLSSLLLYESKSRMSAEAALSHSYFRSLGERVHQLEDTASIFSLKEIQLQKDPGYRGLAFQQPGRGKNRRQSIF

[4] = molecular target: Calcium/calmodulin-dependent protein kinase type 1D (Homo sapiens) (UniProt Q8IU85); test: Selectivity interaction (ActivX KiNativ screen (ex vivo kinase selectivity in human PBMCs)) EUB0001619a CAMK1D; type: cell-based; conditions: PBMC, at 1 µM
Sequence of Calcium/calmodulin-dependent protein kinase type 1D (Homo sapiens) (Q8IU85 whole entry, looked up): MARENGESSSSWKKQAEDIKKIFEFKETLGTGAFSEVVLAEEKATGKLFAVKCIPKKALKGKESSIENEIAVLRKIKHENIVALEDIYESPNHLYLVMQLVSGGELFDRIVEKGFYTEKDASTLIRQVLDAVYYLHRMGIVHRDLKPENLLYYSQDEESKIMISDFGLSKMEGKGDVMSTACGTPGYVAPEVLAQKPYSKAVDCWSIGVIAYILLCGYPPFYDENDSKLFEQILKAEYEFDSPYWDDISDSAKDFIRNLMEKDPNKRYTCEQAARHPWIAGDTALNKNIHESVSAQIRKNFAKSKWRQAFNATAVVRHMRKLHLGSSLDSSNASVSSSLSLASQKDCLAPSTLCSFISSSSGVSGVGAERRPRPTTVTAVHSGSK

[5] = molecular target: T2, Serine/threonine-protein kinase Sgk1 (Homo sapiens) (UniProt O00141); test: Selectivity interaction (KinomeScan (DiscoverX)) EUB0001619a SGK1; conditions: at 1 µM
T2 sequence (whole entry): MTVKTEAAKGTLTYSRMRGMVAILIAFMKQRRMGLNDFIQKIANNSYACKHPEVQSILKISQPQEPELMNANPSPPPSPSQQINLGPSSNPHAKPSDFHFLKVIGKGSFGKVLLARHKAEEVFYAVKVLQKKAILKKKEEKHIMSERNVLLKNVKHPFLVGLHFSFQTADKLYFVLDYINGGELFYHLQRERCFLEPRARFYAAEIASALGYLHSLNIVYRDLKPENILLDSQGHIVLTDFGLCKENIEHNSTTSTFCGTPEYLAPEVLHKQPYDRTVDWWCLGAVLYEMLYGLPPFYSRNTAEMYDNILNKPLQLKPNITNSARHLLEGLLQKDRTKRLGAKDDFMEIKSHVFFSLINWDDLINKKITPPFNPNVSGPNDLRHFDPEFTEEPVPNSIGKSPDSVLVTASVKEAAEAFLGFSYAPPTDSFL

[6] = molecular target: T3, Serine/threonine-protein kinase ICK (Homo sapiens) (UniProt Q9UPZ9); test: Selectivity interaction (KinomeScan (DiscoverX)) EUB0001619a ICK; conditions: at 1 µM
T3 sequence (whole entry): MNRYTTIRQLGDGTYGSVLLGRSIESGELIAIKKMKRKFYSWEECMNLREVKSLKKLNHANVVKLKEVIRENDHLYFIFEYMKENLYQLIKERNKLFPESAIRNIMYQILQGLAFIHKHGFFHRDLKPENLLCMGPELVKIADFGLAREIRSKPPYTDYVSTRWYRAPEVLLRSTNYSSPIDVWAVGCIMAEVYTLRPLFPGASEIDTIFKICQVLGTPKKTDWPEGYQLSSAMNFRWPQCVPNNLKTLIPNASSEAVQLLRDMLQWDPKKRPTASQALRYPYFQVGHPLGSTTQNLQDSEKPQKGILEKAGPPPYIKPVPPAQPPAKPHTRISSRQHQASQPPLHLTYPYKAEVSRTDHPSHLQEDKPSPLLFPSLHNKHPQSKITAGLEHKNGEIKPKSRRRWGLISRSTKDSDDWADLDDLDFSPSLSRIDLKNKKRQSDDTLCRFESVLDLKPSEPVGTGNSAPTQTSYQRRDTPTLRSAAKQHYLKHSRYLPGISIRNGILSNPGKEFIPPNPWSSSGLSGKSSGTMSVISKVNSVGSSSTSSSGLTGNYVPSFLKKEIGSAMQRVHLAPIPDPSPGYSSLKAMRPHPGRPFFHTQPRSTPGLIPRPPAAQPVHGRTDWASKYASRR

[7] = molecular target: T4, Serine/threonine-protein kinase Sgk3 (Homo sapiens) (UniProt Q96BR1); test: Selectivity interaction (KinomeScan (DiscoverX)) EUB0000618a SGK3; conditions: at 10 µM
T4 sequence (whole entry): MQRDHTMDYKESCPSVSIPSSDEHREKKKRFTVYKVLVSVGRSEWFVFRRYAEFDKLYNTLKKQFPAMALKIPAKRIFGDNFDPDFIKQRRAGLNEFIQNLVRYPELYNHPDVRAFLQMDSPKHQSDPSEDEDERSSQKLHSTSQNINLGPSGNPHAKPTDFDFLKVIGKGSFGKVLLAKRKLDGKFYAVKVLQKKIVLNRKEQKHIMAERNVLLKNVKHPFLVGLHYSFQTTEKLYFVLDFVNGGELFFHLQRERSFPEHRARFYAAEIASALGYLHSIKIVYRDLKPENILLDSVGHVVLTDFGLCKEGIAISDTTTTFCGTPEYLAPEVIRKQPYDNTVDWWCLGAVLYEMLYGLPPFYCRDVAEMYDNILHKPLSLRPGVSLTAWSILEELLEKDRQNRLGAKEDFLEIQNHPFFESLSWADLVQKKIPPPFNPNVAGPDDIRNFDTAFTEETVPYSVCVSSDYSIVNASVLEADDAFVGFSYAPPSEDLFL

Sequence of STE20-like serine/threonine-protein kinase (Q9H2G2 whole entry, looked up): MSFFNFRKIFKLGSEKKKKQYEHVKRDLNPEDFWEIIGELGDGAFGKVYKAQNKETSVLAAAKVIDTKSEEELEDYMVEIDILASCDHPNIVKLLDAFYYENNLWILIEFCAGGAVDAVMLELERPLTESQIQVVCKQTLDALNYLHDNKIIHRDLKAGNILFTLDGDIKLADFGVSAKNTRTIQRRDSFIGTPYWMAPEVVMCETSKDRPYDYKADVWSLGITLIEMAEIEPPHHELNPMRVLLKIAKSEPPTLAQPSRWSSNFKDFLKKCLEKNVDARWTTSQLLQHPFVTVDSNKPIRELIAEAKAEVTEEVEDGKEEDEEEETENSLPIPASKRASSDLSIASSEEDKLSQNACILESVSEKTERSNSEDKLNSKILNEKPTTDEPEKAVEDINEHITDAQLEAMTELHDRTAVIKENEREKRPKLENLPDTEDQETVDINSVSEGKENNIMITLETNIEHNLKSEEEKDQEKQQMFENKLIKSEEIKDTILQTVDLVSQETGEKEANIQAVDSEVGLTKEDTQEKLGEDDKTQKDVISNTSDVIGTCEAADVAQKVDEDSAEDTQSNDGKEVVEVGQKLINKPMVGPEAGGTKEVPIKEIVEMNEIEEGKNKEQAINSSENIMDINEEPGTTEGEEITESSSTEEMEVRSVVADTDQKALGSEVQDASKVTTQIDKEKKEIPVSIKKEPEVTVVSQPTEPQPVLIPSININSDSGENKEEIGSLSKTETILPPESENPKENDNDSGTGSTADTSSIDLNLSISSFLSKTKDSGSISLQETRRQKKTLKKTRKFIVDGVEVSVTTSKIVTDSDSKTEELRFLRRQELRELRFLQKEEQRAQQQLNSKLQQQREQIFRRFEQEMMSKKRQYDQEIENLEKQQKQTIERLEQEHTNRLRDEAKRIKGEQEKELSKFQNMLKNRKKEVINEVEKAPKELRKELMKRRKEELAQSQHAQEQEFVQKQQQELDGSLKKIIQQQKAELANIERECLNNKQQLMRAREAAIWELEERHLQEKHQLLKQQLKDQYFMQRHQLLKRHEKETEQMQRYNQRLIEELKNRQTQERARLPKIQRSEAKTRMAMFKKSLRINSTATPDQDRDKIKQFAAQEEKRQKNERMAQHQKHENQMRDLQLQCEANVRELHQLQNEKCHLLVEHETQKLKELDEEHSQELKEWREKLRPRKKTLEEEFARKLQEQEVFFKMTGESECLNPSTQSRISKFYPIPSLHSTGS

Q: `COCC(=O)NC/C=C/c1ccc2ncnc(Nc3ccc(Oc4ccc(C)nc4)c(C)c3)c2c1` [CP-724714] was tested. Which % of control [1] did it give?
A: Its % of control is 60%.

Q: `Nc1cnc(N2CCc3cc(S(=O)(=O)Nc4c(F)cc(Cl)cc4F)cc(N4CCCC4=O)c32)nc1` [TP-020n] was tested. Which % of control [2] did it give?
A: The % of control was 100%.

Q: With `COc1cc(Nc2nc(C)cc(-c3cnn4nc(OC)ccc34)n2)cc(C(F)(F)F)c1` as the molecule, how does the % of control [3] read?
A: Its % of control is 87%.

Q: How did the % of inhibition [4] turn out when `N#Cc1cccc(-c2c[nH]c3ncnc(N4CCOCC4)c23)c1` was run?
A: The % of inhibition was 1%.

Q: What about the % of control [5] of the same molecule?
A: The % of control was 65%.

Q: And the % of control [6]?
A: Its % of control is 96%.

Q: Which % of control [7] does the source give for `O[C@H]1CC[C@H](Nc2ncc3nc(Nc4c(F)cc(F)cc4F)n([C@H]4CCOC4)c3n2)CC1` here?
A: The % of control was 100%.
